8 compounds from US20050137172A1, “Haloacetamide and azide substituted compounds and methods of use thereof” (priority 2003, published 2005) can be followed below.

Structures are written as SMILES. Read-outs that look alike come from different tables or passages of the source. Bounds are passed on as bounds.

In general, melting point refers to the temperature of the solid-liquid transition. For orientation: IC50 means the concentration at which inhibition is half-maximal.

The subject of one series is PC-3. As to the kind of experiment: Cell growth inhibition (sulforhodamine B assay). Type of series: cell-based. Conditions: Homo sapiens, PC-3, 96 h, read-out: IC50 PC-3. The protocol:
(§1) Prostate cancer cell lines were obtained from ATCC. All cells were grown in RPMI-1640 medium containing 2 mM L-glutamine supplemented with 10% fetal bovine serum (FBS) and maintained in a 5% CO2/95% air humidified atmosphere at 37° C.
(§2) Cells were plated on 96-well plates and incubated with drug-containing culture medium (200 μL/well) for 4 (DU 145, PC-3, PPC-1, and TSU) or 6 (LNCaP) days. Medium was replaced with freshly prepared batches every other day during the incubation. At the end of drug treatment, an aliquot of 50 μL of cold (4° C.) trichloroacetic acid (TCA, 50%) was gently layered on the top of growth medium in each well to make a final TCA concentration of 10%. The mixtures were incubated at 4° C. for 1 hour, and then washed 5 times with tap water to remove TCA, growth medium, low-molecular-weight metabolites, and serum proteins. The plates were air dried overnight. Next, fixed cells were stained with 50 μL of SRB solution (0.4%, wt/vol) for 10 minutes. After staining, SRB solution was decanted, and plates were quickly rinsed 5 times with 1% acetic acid to remove unbound dye and air dried overnight. The cellular protein-bound SRB was then dissolved with 200 μL unbuffered Tris base (10 mM, pH 10.5) for 30 minutes on a rocking platform shaker, and absorbance at 540 nm was measured by a plate reader.
(§3) Percentage of cell survival was calculated by absorbance at 540 nm in testing wells divided by absorbance in negative control wells (medium without the test compound). Percentages of cell survival versus drug concentrations were plotted and the concentration of drug that inhibited cell growth by 50% (IC50) was determined by nonlinear regression using WinNonlin (Pharsight Corporation, Mountain View, Calif.).
(§4) METHODS: LNCaP, DU145, PC-3, TSU, and PPC-1 cells were cultured in 96-well plates and treated with increasing concentrations of the compound of interest for 4 days. Cell survival was determined by the sulforhodamine B assay and was plotted as a percentage of control (drug-free wells) versus drug concentration. The concentration of drug that inhibited cell growth by 50% (IC50) was determined by nonlinear regression. Known anticancer drugs were used as cytotoxic positive controls.

For another series, the system named is TSU. Kind of series: Cell growth inhibition (sulforhodamine B assay). Type of series: cell-based. Conditions: Homo sapiens, 96 h, read-out: IC50 TSU. The protocol: as §1, §2, §3, §4
(In SRB staining, fixed cells bind dye roughly in proportion to their protein.)

The subject of another series is LNCaP. Kind of series: Cell growth inhibition (sulforhodamine B assay). Type of series: cell-based. Conditions: Homo sapiens, read-out: IC50 LNCaP. Here is the method: as §1, §2, §3, §4
In another series the test system is DU145. Kind of series: Cell growth inhibition (sulforhodamine B assay). It is filed as cell-based. The following applies: Homo sapiens, DU-145, 96 h, read-out: IC50 DU145. The protocol:
as §1, §2, §3, §4

A further series concerns PPC-1. Kind of series: Cell growth inhibition (sulforhodamine B assay). The following applies: Homo sapiens, PPC-1, 96 h, read-out: IC50 PPC-1. Type of series: cell-based. The protocol: as §1, §2, §3, §4
For a further series, the system named is MCF-7 cells. Kind of series: Growth curve (trypan blue cell count, 120 h). It is filed as cell-based. Conditions: FIG. 2B. The protocol:
(§5) MATERIALS: DMSO is the vehicle control and the solvent for Compound A and Compound B.
(§6) METHODS: Cells were plated at 5-10×10^4 cells/well in five 6-well plates and incubated at 37° C., 5% CO2 for 24 h to allow the cells sufficient time to attach and be in log phase growth at the start of the experiment. The media was aspirated from four of the plates and replaced with media containing vehicle control (DMSO) or drug dissolved in DMSO. The total volume of DMSO/drug added to each well was equal to 0.1% of the media volume in each well. LNCaP, PC-3, MCF-7, and CV-1 cells were treated with vehicle control, and increasing concentrations of Compound A and Compound B (0.01, 0.05, 0.1, 0.5, 1.0, 5.0, and 10.0 μM). Three wells were treated with the same concentration of the drugs or DMSO for each treatment condition listed above. The cells from the remaining 6-well plate were collected and counted to determine plating efficiency. The 6-well plates containing DMSO/drug were incubated for 120 h at 37° C., 5% CO2. After 120 h, the media from each well was collected along with trypsinized cells and centrifuged at 150×g for 4 min. The cells were resuspended in 1 mL of media, from which 90 μl was taken and combined with 10 μl trypan blue for counting on a hemacytometer.

Series [1] concerns LNCaP cells. As to the kind of experiment: Growth curve (trypan blue cell count, 120 h). It is filed as cell-based, human. The protocol:
as §5, §6

The test system of series [2] is five prostate cancer cell lines. Kind of series: Cell growth inhibition (sulforhodamine B assay), all five lines together. Type of series: cell-based, human. The following applies: for IC50 values in inhibiting the growth of all of five prostate cancer cell lines: DU 145, PC-3, TSU, PPC-1, LNCaP; for IC50s from one-day treatment versus 4 or 6 days treatment: comparison of treatment durations. The protocol:
as §1, §2, §3, §4

In series [3] the test system is LNCaP cells. Kind of series: TUNEL assay (apoptosis, DNA fragmentation). The following applies: LNCaP cells exposed for 24 hours, relative to 0.1% DMSO vehicle control. It is filed as cell-based, human. The protocol: MATERIALS: In Situ Cell Death Detection Kit, Fluorescein (Roche).
METHODS: DNA fragmentation of apoptotic cells was monitored by the TUNEL assay as described by the supplier. Briefly, LNCaP cells were plated at 2×10^5 cells/well in 2-well chamber slides and incubated at 37° C., 5% CO2 for 24 h to allow the cells sufficient time to attach and be in log phase growth at the start of the experiment. The media was aspirated and replaced with media containing vehicle control (DMSO) or drug dissolved in DMSO. The total volume of DMSO/drug added to each well was equal to 0.1% of the media volume in each well. LNCaP cells were treated with vehicle control, and increasing concentrations of Compound A and Compound B ([…]) for 24-48 h. Two wells were treated with the same concentration of the drugs or DMSO for each treatment condition listed above. The media was collected along with the trypsinized cells and centrifuged at 150 ×g for 4 min. The cells were resuspended in 50 μl PBS, pipetted onto poly-lysine coated slides, and then fixed in 4% methanol-free formaldehyde in PBS (H 7.4) for 25 min at 4° C. Cells were permeabilized in 0.2% Triton X-100 in PBS for 5 min at room temperature. […] Green and red fluorescence emissions were observed microscopically using 520 nm and >620 nm filters, respectively.

Setting [4] is: sulforhodamine B assay, 4 days treatment.
Setting [5] is: sulforhodamine B assay, 4 or 6 days treatment.

As to `C[C@](O)(COc1ccc(N2C(=O)C=CC2=O)cc1)C(=O)Nc1ccc([N+](=O)[O-])c(C(F)(F)F)c1` (hydrate or solvate), the melting point fell in the range of 82 to 84 °C.

In the case of `O=c1[nH]cc(F)c(=O)[nH]1` [Compound 5-FU, fluorouracil, reference compound], the IC50 in the series on PC-3 (setting [4]) worked out at 12100 ± 900 nM; in the series on TSU (setting [4]), 2900 ± 900 nM; with LNCaP (setting [5]), 900 ± 300 nM; in the series with DU145 (setting [4]) it was 2600 ± 900 nM; in the series with PPC-1 (setting [4]) it was 5500 ± 300 nM.

In the case of `C[C@](O)(COc1ccc(NC(=O)CCl)cc1)C(=O)Nc1ccc([N+](=O)[O-])c(C(F)(F)F)c1` [Compound B], in the series with MCF-7 cells, the “Concentration at which MCF-7 cells are sensitive” value is more than 5 µM. Also, the half-inhibitory concentration (IC50) in the series with PC-3 (setting [4]) was found to be 4200 ± 200 nM; in the series with TSU (setting [4]), 1400 ± 400 nM; with LNCaP (setting [5]) it was 4400 ± 800 nM; with DU145 (setting [4]), 900 ± 100 nM; in the series on PPC-1 (setting [4]), 1800 ± 100 nM. The “Sensitivity of LNCaP cells relative to PC-3 or CV-1 cells” value in the series with LNCaP cells [1] (growth curve, FIG. 2B) is on record as “approximately 10 fold”. Besides, in series [2], the “IC50 values in inhibiting the growth of all of five prostate cancer cell lines” value is given as “low micro-molar range”. Further, the “IC50s from one-day treatment versus 4 or 6 days treatment” value in [2] is recorded as “did not show significant difference”. Also, the “Apoptosis (green fluorescence, fragmented DNA) in TUNEL assay” value in the series with LNCaP cells [3] is “similar”.

On to `N[C@@H](Cc1ccc(N(CCCl)CCCl)cc1)C(=O)O` [Melphalan, reference compound], for which the half-inhibitory concentration (IC50) is 30400 ± 3100 nM in the series with PC-3; 4000 ± 200 nM in the series on TSU; 10300 ± 100 nM in the series with LNCaP; 31000 ± 4800 nM with DU145; 16200 ± 1800 nM in the series on PPC-1.

In turn, `C[C@](O)(COc1ccc(NC(=O)C(F)(F)F)cc1)C(=O)Nc1ccc([N+](=O)[O-])c(C(F)(F)F)c1` displayed a melting point of 58 to 60 °C.

`C[C@](O)(COc1ccc(NC(=O)C(Cl)(Cl)Cl)cc1)C(=O)Nc1ccc([N+](=O)[O-])c(C(F)(F)F)c1` (hydrate or solvate) came in with a melting point of 59 to 61 °C.

For `C[C@](O)(COc1ccc(NC(=O)CBr)cc1)C(=O)Nc1ccc([N+](=O)[O-])c(C(F)(F)F)c1` [Compound A], the IC50 with PC-3 (setting [4]) turned out to be 2410 ± 600 nM; in the series on TSU (setting [4]), 400 ± 300 nM; in the series on LNCaP (setting [5]), 1100 ± 200 nM; in the series on DU145 (setting [4]), 1300 ± 300 nM; in the series on PPC-1 (setting [4]), 1100 ± 100 nM. Besides, in the series with LNCaP cells [1] (LNCaP versus PC-3, MCF-7 and CV-1 cells, FIG. 2A), the “Growth inhibitory activity across cell lines (selectivity)” value is recorded as “non-selective growth inhibitory activity”. Also, the “IC50 values in inhibiting the growth of all of five prostate cancer cell lines” value in [2] was “low micro-molar range”. In addition, in series [2], the “IC50s from one-day treatment versus 4 or 6 days treatment” value is on record as “did not show significant difference”. Also, the “Apoptosis (green fluorescence, fragmented DNA) in TUNEL assay” value with LNCaP cells [3] is “exhibit green fluorescence”.

Take `C[C@](O)(COc1ccc(NC(=O)CI)cc1)C(=O)Nc1ccc(C#N)c(C(F)(F)F)c1` (hydrate or solvate): the melting point was in the range of 78 to 80 °C.
